Literature values as cited in patent US8835486B2, “Pharmaceutical formulation containing an HMG-COA reductase inhibitor and method for the preparation thereof” (priority 2006, dated 2014).

For `CC(C)n1c(/C=C/C(O)CC(O)CC(=O)O)c(-c2ccc(F)cc2)c2ccccc21` (stereo not shown) [Fluvastatin], the solubility in water is listed as > 50 g/L.
